Results: the supplement of paper PMC13380429

Columns and labels:
[1] = tested on: A549-ACE2 infected with SARS-CoV-2; test: cell count relative to DMSO; higher = less toxic; details: 24 h
Caco-2 [2] = test: cell viability relative to DMSO; higher = less toxic; details: 72 h
Calu-3 [3] = test: as above; details: 72 h
HepG2 [4] = test: as above; details: 72 h
U2OS [5] = test: as above; details: 72 h
Vero E6 [6] = test: as above; details: 72 h
[7] = tested on: A549-ACE2 infected with SARS-CoV-2; test: SARS-CoV-2 infection rate relative to DMSO; higher = more infection; details: 24 h
A549-ACE2 [8] = test: phospholipidosis EC50; higher = less potent phospholipidosis inducer
A549-ACE2 [9] = test: drug-induced phospholipidosis relative to tamoxifen; higher = more phospholipidosis
[10] = tested on: A549-ACE2 infected with SARS-CoV-2; test: morphology score (similarity to uninfected cells); higher = more like uninfected cells; details: 24 h
Caco-2 [11] = test: relative viability EC50 (midpoint between 100% and the lowest measured viability); higher = less toxic; details: 72 h
Calu-3 [12] = test: as above; details: 72 h
U2OS [13] = test: as above; details: 72 h
Vero E6 [14] = test: as above; details: 72 h
Caco-2 [15] = test: drug sensitivity score (DSS) for viability; higher = more toxic; extreme values may be limits of the assay; details: 72 h
Calu-3 [16] = test: as above; details: 72 h
HepG2 [17] = test: as above; details: 72 h
U2OS [18] = test: as above; details: 72 h
Vero E6 [19] = test: as above; details: 72 h
HepG2 [20] = test: relative viability EC50 (midpoint between 100% and the lowest measured viability); higher = less toxic; details: 72 h

CN(C)c1ccccc1CN1CCCN(Cc2ccccc2N(C)C)C1c1ccncc1 [GANT-61]
Details | SARS-CoV-2 infection rate [%] | cell count [%] | cell viability [%] | morphology score | phospholipidosis EC50 [µM]
A549-ACE2 [8], 24 h | – | – | – | – | 3.39
A549-ACE2 [8], 48 h | – | – | – | – | 4.52
A549-ACE2 [8], 72 h | – | – | – | – | 6.2
Caco-2 [2], 1 nM | – | – | 94.5 | – | –
Caco-2 [2], 10 nM | – | – | 99.9 | – | –
Caco-2 [2], 100 nM | – | – | 92.7 | – | –
Caco-2 [2], 1000 nM | – | – | 99 | – | –
Caco-2 [2], 10000 nM | – | – | 95.9 | – | –
Calu-3 [3], 1 nM | – | – | 111 | – | –
Calu-3 [3], 10 nM | – | – | 109 | – | –
Calu-3 [3], 100 nM | – | – | 110 | – | –
Calu-3 [3], 1000 nM | – | – | 88.2 | – | –
Calu-3 [3], 10000 nM | – | – | 47.1 | – | –
HepG2 [4], 1 nM | – | – | 100 | – | –
HepG2 [4], 10 nM | – | – | 105 | – | –
HepG2 [4], 100 nM | – | – | 97.5 | – | –
HepG2 [4], 1000 nM | – | – | 95.3 | – | –
HepG2 [4], 10000 nM | – | – | 71.1 | – | –
U2OS [5], 1 nM | – | – | 97.5 | – | –
U2OS [5], 10 nM | – | – | 94 | – | –
U2OS [5], 100 nM | – | – | 95.8 | – | –
U2OS [5], 1000 nM | – | – | 100 | – | –
U2OS [5], 10000 nM | – | – | 93.5 | – | –
Vero E6 [6], 1 nM | – | – | 97.7 | – | –
Vero E6 [6], 10 nM | – | – | 101 | – | –
Vero E6 [6], 100 nM | – | – | 96 | – | –
Vero E6 [6], 1000 nM | – | – | 95.6 | – | –
Vero E6 [6], 10000 nM | – | – | 95 | – | –
[1], 0.3 µM | – | 95 | – | – | –
[1], 3 µM | – | 110 | – | – | –
[1], 10 µM | – | 117 | – | – | –
[1], 30 µM | – | 109 | – | – | –
[7], 0.3 µM | 99 | – | – | – | –
[7], 3 µM | 64 | – | – | – | –
[7], 10 µM | 33 | – | – | – | –
[7], 30 µM | 41 | – | – | – | –
[10], 0.3 µM | – | – | – | -0.11 | –
[10], 3 µM | – | – | – | 0.59 | –
[10], 10 µM | – | – | – | 0.68 | –
[10], 30 µM | – | – | – | 0.26 | –

drug-induced phospholipidosis [%], A549-ACE2 [9]
Details | 0.3 µM | 0.833333 µM | 3.33333 µM | 6.66667 µM | 10 µM | 30 µM
24 h | 3.13 | 5.25 | 60.1 | 90.1 | 94.9 | 116
48 h | 6.4 | 5.75 | 51.9 | 94.9 | 118 | 135
72 h | 6.86 | 6.64 | 47 | 96.1 | 125 | –

Details | drug sensitivity score | relative viability EC50 [µM]
Caco-2 [11] | – | > 10
Caco-2 [15] | 0 | –
Calu-3 [12] | – | 1.65
Calu-3 [16] | 4.7 | –
HepG2 [17] | 2 | –
U2OS [13] | – | > 10
U2OS [18] | 0 | –
Vero E6 [14] | – | > 10
Vero E6 [19] | 0 | –

CC[C@@H](C)CNCC(=O)N1CCc2sccc2[C@@H]1COc1cccc(C)c1 [RU-SKI-43]
Details | SARS-CoV-2 infection rate [%] | cell count [%] | cell viability [%] | morphology score | phospholipidosis EC50 [µM]
A549-ACE2 [8], 24 h | – | – | – | – | 3.7
A549-ACE2 [8], 48 h | – | – | – | – | 4.58
A549-ACE2 [8], 72 h | – | – | – | – | 6.66
Caco-2 [2], 1 nM | – | – | 98.8 | – | –
Caco-2 [2], 10 nM | – | – | 103 | – | –
Caco-2 [2], 100 nM | – | – | 90.4 | – | –
Caco-2 [2], 1000 nM | – | – | 107 | – | –
Caco-2 [2], 10000 nM | – | – | 83.2 | – | –
Calu-3 [3], 1 nM | – | – | 94.9 | – | –
Calu-3 [3], 10 nM | – | – | 103 | – | –
Calu-3 [3], 100 nM | – | – | 102 | – | –
Calu-3 [3], 1000 nM | – | – | 109 | – | –
Calu-3 [3], 10000 nM | – | – | 80.8 | – | –
HepG2 [4], 1 nM | – | – | 104 | – | –
HepG2 [4], 10 nM | – | – | 94.5 | – | –
HepG2 [4], 100 nM | – | – | 99.6 | – | –
HepG2 [4], 1000 nM | – | – | 108 | – | –
HepG2 [4], 10000 nM | – | – | 86.8 | – | –
U2OS [5], 1 nM | – | – | 95.5 | – | –
U2OS [5], 10 nM | – | – | 98.1 | – | –
U2OS [5], 100 nM | – | – | 94.4 | – | –
U2OS [5], 1000 nM | – | – | 99.5 | – | –
U2OS [5], 10000 nM | – | – | 93 | – | –
Vero E6 [6], 1 nM | – | – | 93.7 | – | –
Vero E6 [6], 10 nM | – | – | 92.9 | – | –
Vero E6 [6], 100 nM | – | – | 90.4 | – | –
Vero E6 [6], 1000 nM | – | – | 98.3 | – | –
Vero E6 [6], 10000 nM | – | – | 92.8 | – | –
[1], 0.3 µM | – | 98 | – | – | –
[1], 3 µM | – | 116 | – | – | –
[1], 10 µM | – | 119 | – | – | –
[1], 30 µM | – | 100 | – | – | –
[7], 0.3 µM | 102 | – | – | – | –
[7], 3 µM | 60 | – | – | – | –
[7], 10 µM | 24 | – | – | – | –
[7], 30 µM | 24 | – | – | – | –
[10], 0.3 µM | – | – | – | -0.05 | –
[10], 3 µM | – | – | – | 0.65 | –
[10], 10 µM | – | – | – | 0.83 | –
[10], 30 µM | – | – | – | 0.3 | –

drug-induced phospholipidosis [%], A549-ACE2 [9]
Details | 0.3 µM | 0.833333 µM | 3.33333 µM | 6.66667 µM | 10 µM | 30 µM
24 h | 2.31 | 9.84 | 41 | 92 | 102 | 95.8
48 h | 1.76 | 10.7 | 27.3 | 78.5 | 100 | 95
72 h | 3.03 | 9.34 | 27.4 | 73.8 | 102 | –

Details | drug sensitivity score | relative viability EC50 [µM]
Caco-2 [11] | – | > 10
Caco-2 [15] | 0.2 | –
Calu-3 [12] | – | > 10
Calu-3 [16] | 0.3 | –
HepG2 [17] | 0 | –
HepG2 [20] | – | > 10
U2OS [13] | – | > 10
U2OS [18] | 0 | –
Vero E6 [14] | – | > 10
Vero E6 [19] | 0 | –
